Here are results for seven sequences from article PMC12066480, “Optimization of neuron-specific interfering peptides targeting GABAB receptor downregulation for proteolytic stability for conferring neuroprotection in a mouse model of cerebral ischemia” (Frontiers in Pharmacology, 2025).

Ends that are not written are not given here.

For data set [1], the system named is cultured neurons (neuron/glia cultures).
For data set [2] the test system is unchanged. Briefly: Peptide uptake into individual cultured neurons, colocalization immunocytochemistry. The settings on record: 1 h.
For data set [3], the system named is cultured neuron/glia cells.
The nature of data set [4]: Proteolytic stability in blood serum, Western blot. The note with it: peptide stock 1 μg/μL added 1:5, 37°C, 3 independent experiments and one technical replicate (Figures 3A-C). (In general: In western blotting, separated proteins are transferred to a membrane and probed.)
Description: For testing the resistance of the peptides to proteolytic degradation blood serum was prepared from blood collected from naïve mice decapitated under deep isoflurane anesthesia. The blood samples were allowed to clot at RT for 10–15 min, followed by centrifugation at 2000 g for 10 min and 4°C to separate the serum. The serum was stored at −80°C until used.
For testing, a peptide stock solution of 1 μg/μL was added directly to the serum in a ratio of 1:5 and incubated at 37°C for different times. After incubation, the mixture was diluted 1:4 with PBS and the samples were incubated with 2x Laemmli sample buffer (Bio-Rad) for 1 h at 37°C. The samples were subjected to tricine-sodium dodecyl sulfate-polyacrylamide gel electrophoresis (SDS-PAGE) using 1 mm thick 16% gels modified for the detection of small peptides as described by ([Too et al., 1994]).
Proteins were transferred onto 0.1 μm nitrocellulose membranes, previously coated with a solution of 0.5% gelatine ([Too et al., 1994]), in a semi-dry transfer cell (Trans-Blot SD; Bio-Rad) for 70 min at 10 V. After transfer, the blots were immediately incubated in 4% PFA for 5 min, thoroughly washed and blocked for 1 h in PBS containing 5% non-fat dry milk at room temperature. Thereafter, the blots were incubated with Alexa Fluor 750-streptavidin overnight at 4°C in PBS containing 5% non-fat dry milk. The blots were washed three times for 10 min with TBST and immunoreactivity was detected by the ODYSSEY CLx scanner (LI-COR Biosciences). For quantification of signal intensity, the images were analyzed with the Image Studio software (LI-COR Biosciences).

For GTPCDIFTRRRRRRRRR [Figure 2A peptide 4], in data set [1], the “colocalization with GABAB receptors and neuronal marker NeuN” value is listed as “selectively taken up by neurons”. Further, in data set [2] (10 μg/mL, normalized to peptide 4, 50 neurons per sequence, two independent experiments (Figure 2B)), the “peptide uptake into individual neurons by immunocytochemistry” value is listed as “considerably more efficiently taken up by neurons than the other peptides tested”. In addition, in data set [2] (NeuN, GFAP, DAPI, 3 independent determinations in triplicates (Figure 2C)), the “cell-type selectivity of uptake (NeuN vs GFAP colocalization)” value is “lack of uptake by astrocytes”. Further, the “uptake of truncated RVG peptides (attached to 9R) into cultured neurons, screening” value (“uptake of truncated RVG peptides” below) in data set [3] is given as “retained neuron-specific uptake”. In the case of FTNSRGKRRRRRRRRRR [Figure 2A peptide 5], in data set [1], the “colocalization with GABAB receptors and neuronal marker NeuN” value is given as “selectively taken up by neurons”. Further, the “uptake of truncated RVG peptides” value in data set [3] is listed as “retained neuron-specific uptake”. For “GTPCDIFTRRRRRRRRRSETQDTMKTGSSTNNNEEEKSR [CaMKII-Pep]”, the “degradation after incubation for up to 72 h in mouse serum” value (“degradation after incubation for up” below) in data set [4] was “did not result in an appreciable degradation”.

“GTPCDIFTRRRRRRRRRFQFTQNQKKEDSKTSTSV [PP2A-Pep]”: in data set [4], the “degradation after incubation for up” value is listed as “did not result in an appreciable degradation”. As to “YTIWMPENPRPGTPCDIFTNSRGKRASNGGGGRRRRRRRRR [Figure 1A peptide 12]”, the “uptake into cultured neuron/glia cells (Figure 1A)” value in data set [3] is reported as “did not affect its uptake into the cultured cells”. As to YTIWMPENRRRRRRRRR [Figure 2A peptide 2], the “colocalization with GABAB receptors and neuronal marker NeuN” value in data set [1] is “selectively taken up by neurons”. For the same sequence, the “uptake of truncated RVG peptides” value in data set [3] is reported as “retained neuron-specific uptake”. “GTPCDIFTRRRRRRRRRLQDTPEKTTYIK [CHOP-Pep]”: the “degradation after incubation for up” value in data set [4] is “did not result in an appreciable degradation”.
